# From patent US20070219213A1, “Use of Adrenergic N-Phenylpiperazine Antagonists, Pahrmaceutical Compositions Containning Them, and Methods of Preparing Them” (priority 2004, published 2007)
# What was measured:
# [1] = system: alpha 1A and alpha 1B adrenoceptors (rabbit aorta, α1A > α1B); test: Vasoconstriction assay in rabbit aorta induced by phenylephrine; type: cell-based; conditions: for pKB (apparent antagonist potency): Schild equation, 3-300 nM
# Protocol: Vasoconstriction Assay in Rabbit Aorta Induced by Phenylephrine
# Aorta rings withdrawn from young male rabbits (1500-1700 g) were tensionated to 2 g (20 mN) and kept in Krebs solution, containing 10 mM Hepes, for 30 minutes, under continuous aeration. During this period, eventual tension adjustments were performed until stabilization in 2 g, always with renewal of Krebs solution. Then, vasoconstrictions were induced by 60 mM KCl solution, in each ring, to verify the viability of the organ on the day of the experiment. The preparation was submitted to contraction with phenylephrine (5×10^−5 M) and, then the rings were washed to reach the basal line (0% of vasoconstriction). The procedure was repeated until obtainment of a constant curve. Then, a curve, using increasing concentrations of phenylephrine (5×10^−9-5×10^−4 M), was performed for each ring, as a positive control. The segments were washed to reach the basal line (0% of vasoconstriction) and incubated with the test compounds, individually, for 30 minutes. A second phenylephrine curve was performed and the obtained data compared to the first control curve. The results were analyzed by one-way ANOVA software from Microcal Origin 4.1. The aorta rings were used once for each compound.
# Determination of the LASSBio 772 Antagonist Potency (pKB) on the Vasoconstriction of Rabbit or Rat Thoracic Aorta.
# cr is the ratio between phenylephrine concentrations in the presence and absence of antagonist; and
# B is the antagonist's concentration.
# alpha 1A subtype = molecular target: T1, alpha 1A subtype (Rattus norvegicus, UniProt P43140); test: [3H]prazosin binding assay in rat salivary gland; conditions: for selectivity index (I.S. alpha 1B/alpha 1A): alpha 1A versus alpha 1B subtype
# T1 sequence (P43140 1-466): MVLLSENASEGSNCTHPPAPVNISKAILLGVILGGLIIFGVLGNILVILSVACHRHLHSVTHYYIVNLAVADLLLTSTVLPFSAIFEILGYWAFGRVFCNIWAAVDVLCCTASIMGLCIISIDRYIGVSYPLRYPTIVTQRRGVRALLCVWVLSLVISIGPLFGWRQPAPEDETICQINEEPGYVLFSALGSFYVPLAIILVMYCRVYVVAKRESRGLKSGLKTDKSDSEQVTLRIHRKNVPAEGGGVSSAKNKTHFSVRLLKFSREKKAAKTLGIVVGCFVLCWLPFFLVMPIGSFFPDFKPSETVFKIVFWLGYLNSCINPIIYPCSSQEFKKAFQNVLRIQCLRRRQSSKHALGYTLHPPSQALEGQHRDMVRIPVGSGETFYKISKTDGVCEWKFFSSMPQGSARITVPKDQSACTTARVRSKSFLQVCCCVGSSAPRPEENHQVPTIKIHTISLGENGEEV
# alpha 1B subtype = molecular target: T2, alpha 1B subtype (Rattus norvegicus, UniProt P15823); test: [3H]prazosin binding assay in rat liver
# T2 construct: from tissue; host or cells: rat liver homogenate/membranes
# T2 sequence (P15823 1-515): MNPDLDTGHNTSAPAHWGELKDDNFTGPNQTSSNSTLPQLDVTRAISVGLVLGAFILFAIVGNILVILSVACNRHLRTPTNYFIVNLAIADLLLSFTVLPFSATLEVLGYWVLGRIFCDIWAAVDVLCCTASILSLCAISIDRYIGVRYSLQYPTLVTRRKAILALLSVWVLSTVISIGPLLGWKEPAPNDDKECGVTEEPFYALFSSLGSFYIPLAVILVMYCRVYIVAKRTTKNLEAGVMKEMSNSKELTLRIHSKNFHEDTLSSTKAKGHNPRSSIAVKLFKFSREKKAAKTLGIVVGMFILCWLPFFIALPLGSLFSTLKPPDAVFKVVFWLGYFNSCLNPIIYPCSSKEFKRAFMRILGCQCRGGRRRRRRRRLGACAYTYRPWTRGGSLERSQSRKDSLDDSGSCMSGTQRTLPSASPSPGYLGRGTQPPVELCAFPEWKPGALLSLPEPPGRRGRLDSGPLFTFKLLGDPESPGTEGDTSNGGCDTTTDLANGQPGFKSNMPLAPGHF
# α1A = molecular target: T3, α1A (Oryctolagus cuniculus, UniProt O02824); test: Binding study in rabbit liver
# T3 construct: from tissue
# T3 sequence (O02824 1-466): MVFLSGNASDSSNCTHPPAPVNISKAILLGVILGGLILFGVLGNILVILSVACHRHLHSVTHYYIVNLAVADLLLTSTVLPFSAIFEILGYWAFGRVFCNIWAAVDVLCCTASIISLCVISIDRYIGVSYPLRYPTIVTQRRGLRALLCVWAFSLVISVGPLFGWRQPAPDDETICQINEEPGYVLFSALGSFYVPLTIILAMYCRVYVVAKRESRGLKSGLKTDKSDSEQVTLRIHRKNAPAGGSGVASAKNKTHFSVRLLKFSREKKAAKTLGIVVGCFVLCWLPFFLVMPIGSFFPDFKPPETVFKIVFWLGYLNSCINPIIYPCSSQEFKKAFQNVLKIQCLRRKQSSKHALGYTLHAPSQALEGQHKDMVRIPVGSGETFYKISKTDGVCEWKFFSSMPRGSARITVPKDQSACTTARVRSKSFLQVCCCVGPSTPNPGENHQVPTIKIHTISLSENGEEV
compound,measurement,setting,value
"COc1ccccc1N1CCN(CCc2ccc3c(c2)OCO3)CC1 [LASSBio 772, 1-(2-1,3-Benzodioxol-5-yl-ethyl)-4-(2-methoxy-phenyl)-piperazine]",antagonist activity on vasoconstriction,"[1]; 30 microM compound, 5×10^−4 M phenylephrine",significant antagonist activity
same,Kb,"[1]; rabbit aorta, phenylephrine",~14.1 nM
same,pKB (apparent antagonist potency),"[1]; rabbit aorta, phenylephrine",7.85
same,pKB (apparent antagonist potency),"[1]; rabbit aorta, phenylephrine, listed as LASSBio-772",around 7.85
same,IC50,alpha 1A subtype,0.26 nM
same,"selectivity indexes of alpha 1A/alpha 1D versus alpha 1B subtype and beta 2, H1 and cholinergic muscarinic receptors",alpha 1A subtype,at least a thousand times
same,selectivity index (I.S. alpha 1B/alpha 1A),alpha 1A subtype,≥ 1700
same,selectivity index (I.S. alpha 1B/alpha 1A),alpha 1A subtype; listed as LASSBio-772,1730
same,Ki,"alpha 1A subtype; rat salivary gland, Cheng Prussof",0.14 nM
same,IC50,alpha 1B subtype,450 nM
same,IC50,α1A,4.9 nM
